The test system of one assay is telomerase. Kind of assay: Telomerase activity (TeloTAGGG telomerase PCR ELISA, RTA) in brain tissue of 3xTg-AD mice after subcutaneous administration. To be noted: for increase of telomerase activity compared with saline-administered group (Group 1): s.c. three times a week for 2 months, whole brain tissue at age 15 months. It is filed as in vivo, mouse. From the text: (§1) To test the PEP1 therapeutic effect on Alzheimer's disease, Alzheimer transgenic mice (3×Tg-AD) were purchased from Jackson Laboratory.
(§2) To investigate the effect of PEP1 according to concentration after breeding, experimental animals were divided and then administered experimental materials as follows. As a positive control material, donepezil was used, the experimental animals were divided into five groups, and each group included 10 mice. Administered materials and doses per group are as follows. • Group 1: Saline • Group 2: 0.01 mg/kg ofPEP1 • Group 3: 0.1 mg/kg of PEP1 • Group 4: 1 mg/kg of PEP1 • Group 5: 1 mg/kg of donepezil
PEP1, saline and donepezil were subcutaneously injected at each concentration three times a week for 2 months from the 12th month, one month later (at the age of 15 months), the mice (10 mice per group) were anesthetized, and reperfusion was carried out through the heart of each mouse using 0.9% saline to remove blood. Afterward, the brain was extracted, and separated into the hippocampus and the whole brain area, thereby obtaining brain tissue, and the tissue was rapidly frozen using liquid nitrogen.
To investigate PEP1-induced telomerase activity, TeloTAGGG telomerase PCR ELISAPLUS (Cat #12 013 789 001, Roche Boehringer-Mannheim, IN, USA) was used, the entire brain tissues prepared according to the method of Example 2-1 were pulverized, 200 μl of an ice-cold lysis buffer was added to […] of the tissue, incubated on ice for 30 minutes, and centrifuged at 16,000×g for 20 minutes to isolate 175 μl of a protein. 10 μg of the protein was quantified and mixed with a reaction mixture and an internal standard, followed by PCR (see FIG. 4). Hybridization was carried out, a sample was added to a specially-coated MP module to perform a reaction, and then absorbance was measured at 450 or 690 nm using an ELISA reader. Relative telomerase activities (RTAs) were calculated using a calculation formula (see FIG. 3).
For orientation: ELISA stands for enzyme-linked immunosorbent assay.

The next assay concerns telomere. Kind of assay: Telomere length (TeloTAGGG telomere length assay, Southern blot) in brain tissue of 3xTg-AD mice after subcutaneous administration. It is filed as in vivo, mouse. The following applies: 3xTg-AD mice, 0.01, 0.1 and 1 mg/kg s.c. three times a week for 2 months, whole brain tissue, FIG. 2.
Source text: as §1, §2
PEP1, saline and donepezil were subcutaneously injected at each concentration three times a week for 2 months from the 12th month, one month later (at the age of 15 months), the mice (10 mice per group) were anesthetized, and reperfusion was carried out through the heart of each mouse using 0.9% saline to remove blood. Afterward, the brain was extracted, and separated into the hippocampus and the whole brain area, thereby obtaining brain tissue, and the tissue was rapidly frozen using liquid nitrogen. […]

Turning to “EARPALLTSRLRFIPK (hTERT derived peptide fragment) [PEP1, hTERT-derived peptide consisting of 16 amino acids, telomerase location [611-626], made by Fmoc solid phase synthesis]”, the entries for the “increase of telomerase activity compared with saline-administered group (Group 1)” value in the assay on telomerase (0.1 mg/kg (Group 3)) and in the assay with telomerase (Group 4 (dose printed as 'mg/kg'; Group 4 = 1 mg/kg)) were 266% and 370%, respectively. Besides, the “telomerase activity compared with donepezil-administered group (Group 5)” value in the assay with telomerase (Group 4 vs donepezil Group 5, s.c. three times a week for 2 months, FIG. 1) was “statistically significant increase”. For the same sequence, the telomere length result with telomere is listed as “increased according to PEP1 administration concentration”.
